Laboratory results reported in patent publication US20040052750A1, “Compositions for prevention and alleviation of skin wrinkles” (priority 2000, published 2004).
Structures can show the parent of a compound that is named as a salt.

Assays:
[1] = test system: fibroblasts derived from a human; assay: Promoting collagen production in fibroblasts (3H-proline incorporation into collagenase-sensitive protein); format: cell-based; settings: control = 100%
Protocol: The experimental protocol in detail is as follows.
Human-derived fibroblasts were transferred to a 24 well plate and cultured in a medium containing 10% fetal bovine serum (FBS) for 24 hours, followed by washing twice with phosphate buffered saline. […] After the incubation was terminated, cells from each group were harvested and two fractions of each culture were prepared. One fraction from each culture was treated with collagenase. To all fractions was added trichloroacetic acid to precipitate proteins. The amount of radioactivity incorporated into collagenase-sensitive protein was measured and compared with that of the other fraction which was not treated with collagenase. The difference in radioactivity was attributed to the promoting effect of the compound.

[2] = test system: rat skin; assay: Promotion of collagen production in rat skin (hydroxyproline in implanted PVA sponge); format: in vivo, SD rats; settings: 200 μl every day for 10 days, control = 100%
Protocol: In brief, 5-week male SD rats were grouped with 5 rats per group. The rats were each incised 1 cm in the center of their abdomens and PVA sponges (Unipoint ind.) were inserted therein. After suturing, as for experimental groups, respective active ingredients to be examined were applied to the PVA sponge-embeded regions i n a volume o f 200 μl every day for 10 days. Upon autopsy, the PVA sponge was removed to quantify hydroxyproline. The PVA sponge was added with 4 ml of 6 N HCl, hydrolized at 130° C. for 3 hours and was subjected to complete drying. 50 μl of methanol was added and the solution was incubated at 110° C. until HCl was removed. 1.2 ml of 50% isopropanol was added to dissolve the remaining precipitate. 200 μl of chloramine-T (sodium p-toluensulfochloramide trihydrate) solution was added while stirring, and let stand for 10 min. After adding 1.2 ml of Ehrlich reagent and mixing, the solution was incubated at 50° C. for 90 min. The resulting solution was cooled to room temperature and absorbance at 558 nm was measured. Hydroxyproline standard solutions were prepared by dissolving 1 mg hydroxyproline in 1 ml HCl and diluting it to concentrations of 0, 0.2, 0.4, 0.8, 1 mg each relative to 25 μl of 6 N HCl. The standard solutions were hydrolyzed at 130° C. for 3 hours. The quantified value of hydroxyproline, relative to hydroxyproline value (100%) of the control group which was applied with solvent only, are shown in Table 2.

[3] = test system: hairless mice; assay: Inhibiting the generation of wrinkles in hairless mice (simulated sunlight); format: in vivo; settings: 10 per group
Protocol: 6-week hairless mice were placed into 21 experimental groups and 3 control groups, with 10 rats per group. […] The experimental protocol in detail is as follows. Hairless mice were radiated using simulated sunlight at a dose of 2 MED (double Minimal Erythema Dose) 3 days a week for […], thereby generating wrinkles. Respective active ingredients or the solvent only were applied twice every day (specifically, on radiation days, the application was performed at 30 min before and after the radiation), at a volume of 100 μl each for 10 weeks from the first radiation day. Degrees of inhibition of generated wrinkles were determined. The determination was performed by visual observation with naked eyes and photography.

[4] = test system: hairless mice; assay: Alleviating photo-induced wrinkles in hairless mice; format: in vivo; settings: twice a day for 6 weeks, 10 per group
Protocol: Mice were placed into 21 experimental groups and 3 control groups, with 10 rats per group. […] The experimental protocol is as follows. Hairless mice were radiated using a simulated sunlight at a dose of 2 MED (double Minimal Erythema Dose) 3 days a week for 10 weeks, thereby generating wrinkles. Then, respective active ingredients or the solvent only were applied at a volume of 100 μl each, twice a day for 6 weeks. Degrees of wrinkle reduction were determined. The determination was performed by visually observing the compound-applied region with naked eyes, and the region was photographed. The degrees of alleviation of wrinkles in the compound-treatment groups (experimental groups) were compared with those of the control group and were determined as one of 4 stages, that is, none (Score 0), slight (Score 1), moderate (Score 2) and high (Score 3), and the corresponding mice were counted.

## COc1ccc([C@@H]2Sc3ccccc3N(CCN(C)C)C(=O)[C@@H]2OC(C)=O)cc1 [Diltiazem]
[1]; 10^-5 M
  Effect of promoting collagen production in fibroblasts (rate of collagen production): 362.12%
[1]; 10^-6 M
  Effect of promoting collagen production in fibroblasts (rate of collagen production): 321.23%
[1]; 10^-7 M
  Effect of promoting collagen production in fibroblasts (rate of collagen production): 276.25%
[1]; 10^-8 M
  Effect of promoting collagen production in fibroblasts (rate of collagen production): 199.15%
[2]; 10^-5 M
  Effect of promoting collagen production in animal skin (hydroxyproline value vs control): 175.23%
[2]; 10^-6 M
  Effect of promoting collagen production in animal skin (hydroxyproline value vs control): 157.45%
[2]; 10^-7 M
  Effect of promoting collagen production in animal skin (hydroxyproline value vs control): 136.76%
[2]; 10^-8 M
  Effect of promoting collagen production in animal skin (hydroxyproline value vs control): 122.44%
[3]; 10^-3 M
  Inhibition of wrinkles, Score 0 (none): 0 number of mice
  Inhibition of wrinkles, Score 1 (slight): 1 number of mice
  Inhibition of wrinkles, Score 2 (moderate): 2 number of mice
  Inhibition of wrinkles, Score 3 (high): 7 number of mice
[3]; 10^-5 M
  Inhibition of wrinkles, Score 0 (none): 0 number of mice
  Inhibition of wrinkles, Score 1 (slight): 2 number of mice
  Inhibition of wrinkles, Score 2 (moderate): 2 number of mice
  Inhibition of wrinkles, Score 3 (high): 6 number of mice
[3]; 10^-8 M
  Inhibition of wrinkles, Score 0 (none): 0 number of mice
  Inhibition of wrinkles, Score 1 (slight): 2 number of mice
  Inhibition of wrinkles, Score 2 (moderate): 2 number of mice
  Inhibition of wrinkles, Score 3 (high): 6 number of mice
[4]; 10^-3 M
  Reduction of wrinkles, Score 0 (none): 0 number of mice
  Reduction of wrinkles, Score 1 (slight): 0 number of mice
  Reduction of wrinkles, Score 2 (moderate): 2 number of mice
  Reduction of wrinkles, Score 3 (high): 8 number of mice
[4]; 10^-5 M
  Reduction of wrinkles, Score 0 (none): 0 number of mice
  Reduction of wrinkles, Score 1 (slight): 1 number of mice
  Reduction of wrinkles, Score 2 (moderate): 2 number of mice
  Reduction of wrinkles, Score 3 (high): 7 number of mice
[4]; 10^-8 M
  Reduction of wrinkles, Score 0 (none): 0 number of mice
  Reduction of wrinkles, Score 1 (slight): 1 number of mice
  Reduction of wrinkles, Score 2 (moderate): 2 number of mice
  Reduction of wrinkles, Score 3 (high): 7 number of mice

## CCOC(=O)C1=C(COCCN)NC(C)=C(C(=O)OC)C1c1ccccc1Cl (stereo not drawn) [Amoldipine]
[1]; 10^-5 M
  Effect of promoting collagen production in fibroblasts (rate of collagen production): 355.26%
[1]; 10^-6 M
  Effect of promoting collagen production in fibroblasts (rate of collagen production): 330.42%
[1]; 10^-7 M
  Effect of promoting collagen production in fibroblasts (rate of collagen production): 280.07%
[1]; 10^-8 M
  Effect of promoting collagen production in fibroblasts (rate of collagen production): 182.42%
[2]; 10^-5 M
  Effect of promoting collagen production in animal skin (hydroxyproline value vs control): 181.12%
[2]; 10^-6 M
  Effect of promoting collagen production in animal skin (hydroxyproline value vs control): 163.84%
[2]; 10^-7 M
  Effect of promoting collagen production in animal skin (hydroxyproline value vs control): 149.65%
[2]; 10^-8 M
  Effect of promoting collagen production in animal skin (hydroxyproline value vs control): 132.50%
[3]; 10^-3 M
  Inhibition of wrinkles, Score 0 (none): 0 number of mice
  Inhibition of wrinkles, Score 1 (slight): 0 number of mice
  Inhibition of wrinkles, Score 2 (moderate): 2 number of mice
  Inhibition of wrinkles, Score 3 (high): 8 number of mice
[3]; 10^-5 M
  Inhibition of wrinkles, Score 0 (none): 0 number of mice
  Inhibition of wrinkles, Score 1 (slight): 1 number of mice
  Inhibition of wrinkles, Score 2 (moderate): 3 number of mice
  Inhibition of wrinkles, Score 3 (high): 6 number of mice
[3]; 10^-8 M
  Inhibition of wrinkles, Score 0 (none): 0 number of mice
  Inhibition of wrinkles, Score 1 (slight): 1 number of mice
  Inhibition of wrinkles, Score 2 (moderate): 1 number of mice
  Inhibition of wrinkles, Score 3 (high): 8 number of mice
[4]; 10^-3 M
  Reduction of wrinkles, Score 0 (none): 0 number of mice
  Reduction of wrinkles, Score 1 (slight): 1 number of mice
  Reduction of wrinkles, Score 2 (moderate): 3 number of mice
  Reduction of wrinkles, Score 3 (high): 6 number of mice
[4]; 10^-5 M
  Reduction of wrinkles, Score 0 (none): 0 number of mice
  Reduction of wrinkles, Score 1 (slight): 2 number of mice
  Reduction of wrinkles, Score 2 (moderate): 2 number of mice
  Reduction of wrinkles, Score 3 (high): 6 number of mice
[4]; 10^-8 M
  Reduction of wrinkles, Score 0 (none): 0 number of mice
  Reduction of wrinkles, Score 1 (slight): 1 number of mice
  Reduction of wrinkles, Score 2 (moderate): 1 number of mice
  Reduction of wrinkles, Score 3 (high): 8 number of mice

## COc1ccc(CCN(C)CCCC(C#N)(c2ccc(OC)c(OC)c2)C(C)C)cc1OC (stereo not drawn) [Verapamil HCl]
[1]; 10^-5 M
  Effect of promoting collagen production in fibroblasts (rate of collagen production): 355.12%
[1]; 10^-6 M
  Effect of promoting collagen production in fibroblasts (rate of collagen production): 331.09%
[1]; 10^-7 M
  Effect of promoting collagen production in fibroblasts (rate of collagen production): 280.23%
[1]; 10^-8 M
  Effect of promoting collagen production in fibroblasts (rate of collagen production): 183.25%
[2]; 10^-5 M
  Effect of promoting collagen production in animal skin (hydroxyproline value vs control): 183.32%
[2]; 10^-6 M
  Effect of promoting collagen production in animal skin (hydroxyproline value vs control): 167.06%
[2]; 10^-7 M
  Effect of promoting collagen production in animal skin (hydroxyproline value vs control): 147.39%
[2]; 10^-8 M
  Effect of promoting collagen production in animal skin (hydroxyproline value vs control): 135.63%
[3]; 10^-3 M
  Inhibition of wrinkles, Score 0 (none): 0 number of mice
  Inhibition of wrinkles, Score 1 (slight): 0 number of mice
  Inhibition of wrinkles, Score 2 (moderate): 1 number of mice
  Inhibition of wrinkles, Score 3 (high): 9 number of mice
[3]; 10^-5 M
  Inhibition of wrinkles, Score 0 (none): 0 number of mice
  Inhibition of wrinkles, Score 1 (slight): 1 number of mice
  Inhibition of wrinkles, Score 2 (moderate): 2 number of mice
  Inhibition of wrinkles, Score 3 (high): 7 number of mice
[3]; 10^-8 M
  Inhibition of wrinkles, Score 0 (none): 0 number of mice
  Inhibition of wrinkles, Score 1 (slight): 1 number of mice
  Inhibition of wrinkles, Score 2 (moderate): 1 number of mice
  Inhibition of wrinkles, Score 3 (high): 8 number of mice
[4]; 10^-3 M
  Reduction of wrinkles, Score 0 (none): 0 number of mice
  Reduction of wrinkles, Score 1 (slight): 1 number of mice
  Reduction of wrinkles, Score 2 (moderate): 2 number of mice
  Reduction of wrinkles, Score 3 (high): 7 number of mice
[4]; 10^-5 M
  Reduction of wrinkles, Score 0 (none): 0 number of mice
  Reduction of wrinkles, Score 1 (slight): 2 number of mice
  Reduction of wrinkles, Score 2 (moderate): 1 number of mice
  Reduction of wrinkles, Score 3 (high): 7 number of mice
[4]; 10^-8 M
  Reduction of wrinkles, Score 0 (none): 0 number of mice
  Reduction of wrinkles, Score 1 (slight): 2 number of mice
  Reduction of wrinkles, Score 2 (moderate): 2 number of mice
  Reduction of wrinkles, Score 3 (high): 6 number of mice
